{"source": "PubChem BioAssay (NCI)", "assay_in_all_cases": "growth of human tumour cells (NCI), 48 h", "key": {"HCT-15 colon": {"tested_on": "HCT-15 colon"}, "MDA-MB-231 breast": {"tested_on": "MDA-MB-231 breast"}, "SK-OV-3 ovarian": {"tested_on": "SK-OV-3 ovarian"}, "SW-620 colon": {"tested_on": "SW-620 colon"}, "MCF7 breast": {"tested_on": "MCF7 breast"}, "RXF 393 renal": {"tested_on": "RXF 393 renal"}, "OVCAR-4 ovarian": {"tested_on": "OVCAR-4 ovarian"}, "UO-31 renal": {"tested_on": "UO-31 renal"}, "TK-10 renal": {"tested_on": "TK-10 renal"}, "NCI-H522 lung": {"tested_on": "NCI-H522 lung"}, "OVCAR-3 ovarian": {"tested_on": "OVCAR-3 ovarian"}, "MALME-3M melanoma": {"tested_on": "MALME-3M melanoma"}, "UACC-257 melanoma": {"tested_on": "UACC-257 melanoma"}, "SK-MEL-28 melanoma": {"tested_on": "SK-MEL-28 melanoma"}, "EKVX NSCLC": {"tested_on": "EKVX NSCLC"}, "SF-539 CNS": {"tested_on": "SF-539 CNS"}, "OVCAR-5 ovarian": {"tested_on": "OVCAR-5 ovarian"}, "SN12C renal": {"tested_on": "SN12C renal"}, "MDA-MB-435": {"tested_on": "MDA-MB-435"}, "SK-MEL-2 melanoma": {"tested_on": "SK-MEL-2 melanoma"}, "HOP-92 NSCLC": {"tested_on": "HOP-92 NSCLC"}, "NCI/ADR-RES ovarian": {"tested_on": "NCI/ADR-RES ovarian"}, "UACC-62 melanoma": {"tested_on": "UACC-62 melanoma"}, "A498 renal": {"tested_on": "A498 renal"}, "SNB-19 CNS": {"tested_on": "SNB-19 CNS"}, "SF-295 CNS": {"tested_on": "SF-295 CNS"}, "U251 CNS": {"tested_on": "U251 CNS"}, "DU-145 prostate": {"tested_on": "DU-145 prostate"}, "NCI-H23 lung": {"tested_on": "NCI-H23 lung"}, "SK-MEL-5 melanoma": {"tested_on": "SK-MEL-5 melanoma"}, "SNB-75 CNS": {"tested_on": "SNB-75 CNS"}, "ACHN renal": {"tested_on": "ACHN renal"}, "HS 578T breast": {"tested_on": "HS 578T breast"}}, "note": "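Tested at 5 concentrations; 48 h exposure; 96-well plates; endpoints linearly interpolated, else capped at highest concentration. GI50 marks 50% less growth. At the TGI there is no net growth.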"}
{"smiles": "CCOC(=O)c1cc(C(=O)c2ccc(Cl)cc2)n2ccc(-c3cc[n+](CC(=O)c4ccc(OC)cc4)cc3)cc12", "values": [{"measurement": "GI50", "setting": "HCT-15 colon", "value": 1.64, "unit": "µM"}, {"measurement": "TGI", "setting": "HCT-15 colon", "value": 3.6, "unit": "µM"}, {"measurement": "GI50", "setting": "MDA-MB-231 breast", "value": 1.59, "unit": "µM"}, {"measurement": "TGI", "setting": "MDA-MB-231 breast", "value": 3.25, "unit": "µM"}, {"measurement": "GI50", "setting": "SK-OV-3 ovarian", "value": 2.01, "unit": "µM"}, {"measurement": "TGI", "setting": "SK-OV-3 ovarian", "value": 3.62, "unit": "µM"}, {"measurement": "GI50", "setting": "SW-620 colon", "value": 1.38, "unit": "µM"}, {"measurement": "TGI", "setting": "SW-620 colon", "value": 3.27, "unit": "µM"}, {"measurement": "GI50", "setting": "MCF7 breast", "value": 1.4, "unit": "µM"}, {"measurement": "TGI", "setting": "MCF7 breast", "value": 3.36, "unit": "µM"}, {"measurement": "GI50", "setting": "RXF 393 renal", "value": 1.4, "unit": "µM"}, {"measurement": "TGI", "setting": "RXF 393 renal", "value": 3.03, "unit": "µM"}, {"measurement": "GI50", "setting": "OVCAR-4 ovarian", "value": 1.68, "unit": "µM"}, {"measurement": "TGI", "setting": "OVCAR-4 ovarian", "value": 3.4, "unit": "µM"}, {"measurement": "GI50", "setting": "UO-31 renal", "value": 1.47, "unit": "µM"}, {"measurement": "TGI", "setting": "UO-31 renal", "value": 2.99, "unit": "µM"}, {"measurement": "GI50", "setting": "TK-10 renal", "value": 1.76, "unit": "µM"}, {"measurement": "TGI", "setting": "TK-10 renal", "value": 3.37, "unit": "µM"}, {"measurement": "GI50", "setting": "NCI-H522 lung", "value": 1.93, "unit": "µM"}, {"measurement": "TGI", "setting": "NCI-H522 lung", "value": 3.89, "unit": "µM"}, {"measurement": "GI50", "setting": "OVCAR-3 ovarian", "value": 1.88, "unit": "µM"}, {"measurement": "TGI", "setting": "OVCAR-3 ovarian", "value": 3.65, "unit": "µM"}, {"measurement": "GI50", "setting": "MALME-3M melanoma", "value": 2.01, "unit": "µM"}, {"measurement": "TGI", "setting": "MALME-3M melanoma", "value": 3.98, "unit": "µM"}, {"measurement": "GI50", "setting": "UACC-257 melanoma", "value": 2.21, "unit": "µM"}, {"measurement": "TGI", "setting": "UACC-257 melanoma", "value": 4.53, "unit": "µM"}, {"measurement": "GI50", "setting": "SK-MEL-28 melanoma", "value": 1.89, "unit": "µM"}, {"measurement": "TGI", "setting": "SK-MEL-28 melanoma", "value": 3.74, "unit": "µM"}, {"measurement": "GI50", "setting": "EKVX NSCLC", "value": 1.69, "unit": "µM"}, {"measurement": "TGI", "setting": "EKVX NSCLC", "value": 3.5, "unit": "µM"}, {"measurement": "GI50", "setting": "SF-539 CNS", "value": 1.68, "unit": "µM"}, {"measurement": "TGI", "setting": "SF-539 CNS", "value": 3.27, "unit": "µM"}, {"measurement": "GI50", "setting": "OVCAR-5 ovarian", "value": 1.82, "unit": "µM"}, {"measurement": "TGI", "setting": "OVCAR-5 ovarian", "value": 3.69, "unit": "µM"}, {"measurement": "GI50", "setting": "SN12C renal", "value": 1.83, "unit": "µM"}, {"measurement": "TGI", "setting": "SN12C renal", "value": 3.59, "unit": "µM"}, {"measurement": "GI50", "setting": "MDA-MB-435", "value": 1.86, "unit": "µM"}, {"measurement": "TGI", "setting": "MDA-MB-435", "value": 3.67, "unit": "µM"}, {"measurement": "GI50", "setting": "SK-MEL-2 melanoma", "value": 2.04, "unit": "µM"}, {"measurement": "TGI", "setting": "SK-MEL-2 melanoma", "value": 4.36, "unit": "µM"}, {"measurement": "GI50", "setting": "HOP-92 NSCLC", "value": 1.49, "unit": "µM"}, {"measurement": "TGI", "setting": "HOP-92 NSCLC", "value": 3.17, "unit": "µM"}, {"measurement": "GI50", "setting": "NCI/ADR-RES ovarian", "value": 3.16, "unit": "µM"}, {"measurement": "TGI", "setting": "NCI/ADR-RES ovarian", "value": 33, "unit": "µM"}, {"measurement": "GI50", "setting": "UACC-62 melanoma", "value": 1.82, "unit": "µM"}, {"measurement": "TGI", "setting": "UACC-62 melanoma", "value": 3.52, "unit": "µM"}, {"measurement": "GI50", "setting": "A498 renal", "value": 1.6, "unit": "µM"}, {"measurement": "TGI", "setting": "A498 renal", "value": 3.17, "unit": "µM"}, {"measurement": "GI50", "setting": "SNB-19 CNS", "value": 1.83, "unit": "µM"}, {"measurement": "TGI", "setting": "SNB-19 CNS", "value": 3.73, "unit": "µM"}, {"measurement": "GI50", "setting": "SF-295 CNS", "value": 1.7, "unit": "µM"}, {"measurement": "TGI", "setting": "SF-295 CNS", "value": 3.32, "unit": "µM"}, {"measurement": "GI50", "setting": "U251 CNS", "value": 1.7, "unit": "µM"}, {"measurement": "TGI", "setting": "U251 CNS", "value": 3.54, "unit": "µM"}, {"measurement": "GI50", "setting": "DU-145 prostate", "value": 1.69, "unit": "µM"}, {"measurement": "TGI", "setting": "DU-145 prostate", "value": 3.2, "unit": "µM"}, {"measurement": "GI50", "setting": "NCI-H23 lung", "value": 1.84, "unit": "µM"}, {"measurement": "TGI", "setting": "NCI-H23 lung", "value": 3.74, "unit": "µM"}, {"measurement": "GI50", "setting": "SK-MEL-5 melanoma", "value": 1.77, "unit": "µM"}, {"measurement": "TGI", "setting": "SK-MEL-5 melanoma", "value": 3.42, "unit": "µM"}, {"measurement": "GI50", "setting": "SNB-75 CNS", "value": 1.47, "unit": "µM"}, {"measurement": "TGI", "setting": "SNB-75 CNS", "value": 3.09, "unit": "µM"}, {"measurement": "GI50", "setting": "ACHN renal", "value": 1.78, "unit": "µM"}, {"measurement": "TGI", "setting": "ACHN renal", "value": 3.31, "unit": "µM"}, {"measurement": "GI50", "setting": "HS 578T breast", "value": 1.81, "unit": "µM"}, {"measurement": "TGI", "setting": "HS 578T breast", "value": 4.38, "unit": "µM"}]}
